{"source": "patent US9273075B2", "about": "“Prodrugs of 1,4-benzodiazepinone compounds” (BRISTOL-MYERS SQUIBB COMPANY, priority 2012, dated 2016)", "key": {"[1]": {"tested_on": "TALL1 Human T-cell acute lymphoblastic leukemia", "assay": "Human tumor xenograft in mice: TALL1", "format": "in vivo"}, "Pat-24 pancreatic cancer": {"tested_on": "Pat-24 pancreatic cancer", "assay": "Human tumor xenograft in mice: Pat-24", "format": "in vivo", "details": "Pat-24 xenograft; PO, QDx15, 10 day-on-2 day-off, 5-10 mg/kg/adm"}, "[2]": {"tested_on": "BT-474 HER2+ breast cancer", "assay": "Human tumor xenograft in mice: BT-474", "format": "in vivo", "details": "BT-474 xenograft; PO, QDx15, 10 day-on-2 day-off, 5-10 mg/kg/adm"}, "Pat-26 pancreatic cancer": {"tested_on": "Pat-26 pancreatic cancer", "assay": "Human tumor xenograft in mice: Pat-26", "format": "in vivo", "details": "Pat-26 xenograft; PO, QDx15, 10 day-on-2 day-off, 5-10 mg/kg/adm"}, "[3]": {"tested_on": "MDA-MB468 TN breast cancer", "assay": "Human tumor xenograft in mice: MDA-MB468", "format": "in vivo", "details": "PO, QDx15, 10 day-on-2 day-off, 5-10 mg/kg/adm"}, "Pat-50 ovarian cancer": {"tested_on": "Pat-50 ovarian cancer", "assay": "Human tumor xenograft in mice: Pat-50", "format": "in vivo", "details": "Pat-50 xenograft; PO, QDx15, 10 day-on-2 day-off, 5-10 mg/kg/adm"}, "Pat-34 ovarian cancer": {"tested_on": "Pat-34 ovarian cancer", "assay": "Human tumor xenograft in mice: Pat-34", "format": "in vivo", "details": "Pat-34 xenograft; PO, QDx15, 10 day-on-2 day-off, 5-10 mg/kg/adm"}, "[4]": {"tested_on": "U-87 glioblastoma multiforme (GBM)", "assay": "Human tumor xenograft in mice: U-87", "format": "in vivo", "details": "U-87 xenograft; PO, QDx15, 10 day-on-2 day-off, 5-10 mg/kg/adm"}, "[5]": {"tested_on": "MDA-MB157 TN breast cancer", "assay": "Human tumor xenograft in mice: MDA-MB157", "format": "in vivo", "details": "PO, QDx15, 10 day-on-2 day-off, 5-10 mg/kg/adm"}, "[6]": {"tested_on": "Calu-6 Non small cell lung cancer", "assay": "Human tumor xenograft in mice: Calu-6", "format": "in vivo", "details": "Calu-6 xenograft; PO, QDx15, 10 day-on-2 day-off, 5-10 mg/kg/adm"}, "HCT116 colon cancer": {"tested_on": "HCT116 colon cancer", "assay": "Human tumor xenograft in mice: HCT116", "format": "in vivo", "details": "PO, QDx15, 10 day-on-2 day-off, 5-10 mg/kg/adm"}, "G292 osteogenic sarcoma": {"tested_on": "G292 osteogenic sarcoma", "assay": "Human tumor xenograft in mice: G292", "format": "in vivo", "details": "PO, QDx15, 10 day-on-2 day-off, 5-10 mg/kg/adm"}, "[7]": {"tested_on": "Pat-21/Abx R TN breast cancer (abx R)", "assay": "Human tumor xenograft in mice: Pat-21/Abx R", "format": "in vivo", "details": "Pat-21/Abx R xenograft; PO, QDx15, 10 day-on-2 day-off, 5-10 mg/kg/adm"}, "[8]": {"tested_on": "MCF7 estrogen-dependent breast cancer", "assay": "Human tumor xenograft in mice: MCF7", "format": "in vivo", "details": "PO, QDx15, 10 day-on-2 day-off, 5-10 mg/kg/adm"}, "SK-N-AS neuroblastoma": {"tested_on": "SK-N-AS neuroblastoma", "assay": "Human tumor xenograft in mice: SK-N-AS", "format": "in vivo", "details": "PO, QDx15, 10 day-on-2 day-off, 5-10 mg/kg/adm"}, "[9]": {"tested_on": "MCF7i estrogen-independent breast cancer", "assay": "Human tumor xenograft in mice: MCF7i", "format": "in vivo", "details": "PO, QDx15, 10 day-on-2 day-off, 5-10 mg/kg/adm"}, "TALL-1 leukemia": {"tested_on": "TALL-1 leukemia", "assay": "Cell proliferation, TALL-1 leukemia", "format": "cell-based", "details": "Homo sapiens; TALL-1 leukemia cells", "description": "(§1) In in vitro studies, all agents were dissolved in 100% DMSO and serially diluted in media/10% fetal bovine serum. For administration of Notch inhibitors to rodents, two different excipients were used: [1] 94% Labrafil/5% ETOH/1% TW80 or [2] ETOH/TPGS/PEG300 (10:10:80). Notch inhibitors were typically administered orally on a schedule of QD×15, 10 day-on-2 day-off, although other schedules had also been evaluated and shown to be efficacious."}, "MDA-MB-468 breast cancer": {"tested_on": "MDA-MB-468 breast cancer", "assay": "Cell proliferation, MDA-MB-468 breast cancer", "format": "cell-based", "details": "Homo sapiens; MDA-MB-468 breast cancer cells", "description": "as §1"}, "[10]": {"details": "0.5 μM compound, human liver microsomes, ten-minute incubation, NADPH", "experimental": "The metabolic stability assay evaluated CYP-mediated metabolic stability in vitro using human, rat, mouse, dog, and/or monkey microsomes after a ten-minute incubation. Each compound was tested in duplicate.\nTest compound was received as a 3.5 mM stock solution in 100 percent DMSO. […] Each compound was tested in duplicate separately in each of three species in the Metabolic Stability-Human, Rat, and Mouse assay suite or as individual species in the Metabolic Stability-Dog or Metabolic Stability-Monkey suites. Compound, NADPH, and liver microsome solutions were combined for incubation in three steps:\nThe reaction was initiated by the addition of 17 μl of pre-warmed 10 mM NADPH solution in 100 mM NaPi, pH 7.4.\nThe reaction components were mixed well, and 75 μl of the reaction mixture was immediately transferred into 150 μl quench/stop solution (zero-time point, T0). Reactions were incubated at 37° C. for 10 minutes and then an additional 75 μl aliquot was transferred into 150 μl quench solution. Acetonitrile containing 100 μM DMN (a UV standard for injection quality control), was used as the quench solution to terminate metabolic reactions.\nQuenched mixtures were centrifuged at 1500 rpm (˜500×g) in an ALLEGRA® X-12 centrifuge, SX4750 rotor (Beckman Coulter Inc., Fullerton, Calif.) for fifteen minutes to pellet denatured microsomes. A volume of 90 μl of supernatant extract, containing the mixture of parent compound and its metabolites, was then transferred to a separate 96-well plate for UV-LC/MS-MS analysis to determine the percent of parent compound that remained in the mixture.\nPeak integration was performed with the XCALIBUR® software. The percent remaining calculation was performed by comparing the LC-MS/MS peak areas from the T10minute samples to those from the T0minute samples for each compound.\nA set of three compounds was tested along with the test compound in each assay plate."}, "[11]": {"assay": "High Throughput Metabolic Stability Panel, mouse liver microsomes", "details": "0.5 μM compound, mouse liver microsomes, ten-minute incubation, NADPH"}}}
{"compound": "CN1C(=O)[C@@H](NC(=O)[C@H](CCC(F)(F)F)[C@H](CCC(F)(F)F)C(N)=O)N=C(c2ccccc2)c2ccccc21", "note": "[Compound A, (2R,3S)—N-((3S)-1-Methyl-2-oxo-5-phenyl-2,3-dihydro-1H-1,4-benzodiazepin-3-yl)-2,3-bis(3,3,3-trifluoropropyl)succinamide]", "values": [{"measurement": "in vivo efficacy against TALL1, activity as defined by the tumor growth inhibition (TGI)", "setting": "[1]; FIG. 1, dosed intravenously QD×3, weekly×3, Compound A 3 mg/kg, Example 12 1.5, 3, 6 mg/kg, active = TGI≧50%", "value": "active"}, {"measurement": "Antitumor Activity (% TGI)", "setting": "[1]; TALL1 xenograft, PO, QDx15, 10 day-on-2 day-off, 5-10 mg/kg/adm", "value": 112, "unit": "% TGI"}, {"measurement": "Antitumor Activity (% TGI)", "setting": "Pat-24 pancreatic cancer", "value": 111, "unit": "% TGI"}, {"measurement": "Antitumor Activity (% TGI)", "setting": "[2]", "value": 96, "unit": "% TGI"}, {"measurement": "Antitumor Activity (% TGI)", "setting": "Pat-26 pancreatic cancer", "value": 93, "unit": "% TGI"}, {"measurement": "Antitumor Activity (% TGI)", "setting": "[3]", "value": 91, "unit": "% TGI"}, {"measurement": "Antitumor Activity (% TGI)", "setting": "Pat-50 ovarian cancer", "value": 91, "unit": "% TGI"}, {"measurement": "Antitumor Activity (% TGI)", "setting": "Pat-34 ovarian cancer", "value": 89, "unit": "% TGI"}, {"measurement": "Antitumor Activity (% TGI)", "setting": "[4]", "value": 82, "unit": "% TGI"}, {"measurement": "Antitumor Activity (% TGI)", "setting": "[5]", "value": 81, "unit": "% TGI"}, {"measurement": "Antitumor Activity (% TGI)", "setting": "[6]", "value": 81, "unit": "% TGI"}, {"measurement": "Antitumor Activity (% TGI)", "setting": "HCT116 colon cancer", "value": 75, "unit": "% TGI"}, {"measurement": "Antitumor Activity (% TGI)", "setting": "G292 osteogenic sarcoma", "value": 75, "unit": "% TGI"}, {"measurement": "Antitumor Activity (% TGI)", "setting": "[7]", "value": 73, "unit": "% TGI"}, {"measurement": "Antitumor Activity (% TGI)", "setting": "[8]", "value": 73, "unit": "% TGI"}, {"measurement": "Antitumor Activity (% TGI)", "setting": "SK-N-AS neuroblastoma", "value": 67, "unit": "% TGI"}, {"measurement": "Antitumor Activity (% TGI)", "setting": "[9]", "value": 63, "unit": "% TGI"}, {"measurement": "IC50", "setting": "TALL-1 leukemia", "value": 3.9, "unit": "nM"}, {"measurement": "IC50", "setting": "MDA-MB-468 breast cancer", "value": 3.8, "unit": "nM"}, {"measurement": "0.5 μM HLM (% Remaining)", "setting": "[10]", "value": 97, "unit": "%"}, {"measurement": "0.5 μM MsLM (% Remaining)", "setting": "[11]", "value": 91, "unit": "%"}]}
